{"source": "ChEMBL document CHEMBL1158287", "about": "“Identification of ent-16 beta, 17-dihydroxykauran-19-oic acid as an anti-HIV principle and isolation of the new diterpenoids annosquamosins A and B from Annona squamosa” (J Nat Prod, 1996)", "note": "Activity calls are given as the source filed them. The calls are words filed in the database; no cut-off is given here.", "data": [{"system": "Human immunodeficiency virus 1", "experiment": "Antiviral activity against HIV1 3B replication in human H9 cells up to 100 ug/mL after 3 days by p24 antigen capture assay", "assay_type": "functional, organism-based", "conditions": "not given", "values": [{"smiles": "C=C1C[C@@]23CC[C@H]4[C@@](C)(CCC[C@@]4(C)C(=O)O)[C@@H]2CC[C@@H]1C3", "Activity": "inactive"}, {"smiles": "C[C@@]1(CO)CCC[C@]2(C)[C@@H]1CC[C@@]13C[C@H](CC[C@H]12)[C@](O)(CO)C3", "Activity": "inactive"}, {"smiles": "C[C@@]12CCC[C@@](C)(C=O)[C@H]1CC[C@@]13C[C@@H](CC[C@H]12)[C@](O)(CO)C3", "Activity": "inactive"}, {"smiles": "C[C@@]12CCC[C@@](C)(C(=O)O)[C@H]1CC[C@@]13C[C@H](CC[C@H]12)[C@@](O)(CO)C3", "Activity": "inactive"}, {"smiles": "C=C1C[C@@]23CC[C@@H]4[C@](C)(CO)CCC[C@@]4(C)[C@@H]2CC[C@H]1C3", "Activity": "inactive"}, {"smiles": "C[C@@]12CCC[C@@](C)(O)[C@H]1CC[C@@]13C[C@H](CC[C@H]12)[C@H](C(=O)O)C3", "Activity": "inactive"}, {"smiles": "C[C@@]12CCC[C@@](C)(C=O)[C@H]1CC[C@]13C[C@@H](CO)[C@@H](CC[C@H]12)C3", "Activity": "inactive"}, {"smiles": "C[C@@]12CCC[C@@](C)(C=O)[C@H]1CC[C@@]13C[C@H](CC[C@H]12)[C@H](C(=O)O)C3", "Activity": "inactive"}, {"smiles": "C[C@@]12CCC[C@@](C)(C(=O)O)[C@H]1CC[C@]13CC(CO)[C@@H](CC[C@H]12)C3", "note": "(mixture of isomers)", "Activity": "inactive"}, {"smiles": "CC(=O)OC[C@]1(O)C[C@@]23CC[C@H]4[C@@](C)(CCC[C@@]4(C)C=O)[C@@H]2CC[C@H]1C3", "Activity": "inactive"}, {"smiles": "CC(=O)OC[C@@H]1C[C@@]23CC[C@H]4[C@@](C)(CCC[C@@]4(C)C(=O)O)[C@@H]2CC[C@H]1C3", "Activity": "inactive"}, {"smiles": "C[C@@]12CCC[C@@](C)(O)[C@H]1CC[C@@]13C[C@H](CC[C@H]12)[C@](O)(CO)C3", "Activity": "inactive"}]}, {"system": "not listed separately", "experiment": "Therapeutic index, ratio of inhibition of human H9 cells to EC50 for HIV1 3B", "assay_type": "cell-based", "conditions": "not given", "values": [{"smiles": "C[C@@]12CCC[C@@](C)(C(=O)O)[C@H]1CC[C@@]13C[C@@H](CC[C@H]12)[C@](O)(CO)C3", "selectivity ratio": "> 5"}]}, {"system": "Human immunodeficiency virus 1", "experiment": "Antiviral activity against HIV1 3B replication in human H9 cells after 3 days by p24 antigen capture assay", "assay_type": "functional, organism-based", "conditions": "Human immunodeficiency virus 1, 3B, H9, 72 h", "units": {"EC50": "µg/mL"}, "values": [{"smiles": "C[C@@]12CCC[C@@](C)(C(=O)O)[C@H]1CC[C@@]13C[C@@H](CC[C@H]12)[C@](O)(CO)C3", "EC50": 0.8}]}]}
